Our source for the Ki values is publication PMC9239083, “C6 Hydroxymethyl-Substituted Carbapenem MA-1-206 Inhibits the Major Acinetobacter baumannii Carbapenemase OXA-23 by Impeding Deacylation” (mBio, 2022).

The test deals with OXA-23 (Acinetobacter baumannii, UniProt Q9L4P2). Put plainly: X-ray crystal structures (seven soak time points); Ki by nitrocefin competition kinetics with purified enzyme. The class given is biochemical. From the text: X-ray crystal structures (seven soak time points); Ki by nitrocefin competition kinetics with purified enzyme on OXA-23 | The compound is covalently attached to the Ser79 side chain and anchored by six hydrogen bonds.
OXA-23, sequence (Q9L4P2 18-273): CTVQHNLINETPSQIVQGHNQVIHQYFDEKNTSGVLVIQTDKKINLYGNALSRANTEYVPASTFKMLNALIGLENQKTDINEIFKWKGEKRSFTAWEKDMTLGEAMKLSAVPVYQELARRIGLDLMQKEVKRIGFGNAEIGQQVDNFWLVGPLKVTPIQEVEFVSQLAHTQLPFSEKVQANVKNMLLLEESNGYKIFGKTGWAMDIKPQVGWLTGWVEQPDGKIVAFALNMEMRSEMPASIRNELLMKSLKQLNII

As a reminder, the Ki is the dissociation constant of the complex between target and ligand, obtained from inhibition or displacement. A high value points to lower affinity. Regarding `CN(C)C(=O)[C@@H]1C[C@H](SC2=C(C(=O)O)N3C(=O)[C@H](CO)[C@H]3C2)CN1` [MA-1-206], the affinity corresponds to a Ki of 26 ± 2 nM.
